Laboratory results reported in ChEMBL document CHEMBL1201862, “PubChem BioAssay data set” (2004).
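How tested: cells in 96-well plates exposed to compound for 48 hours at five concentrations. At the GI50, growth is halved.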 Calls of active or inactive are those of the source. Rule as the data show it: active = GI50 up to about 1.1 µM and inactive = higher.

Columns and labels:
Test in all cases: inhibition of tumour cell growth, NCI panel, 48 h
[1] = system: SR
[2] = system: NCI-H226
[3] = system: SF-295
[4] = system: NCI-H522
[5] = system: HCT-116
[6] = system: SF-268
[7] = system: UACC-257
[8] = system: SK-MEL-28
[9] = system: NCI-H460
[10] = system: MOLT-4
[11] = system: SK-MEL-2
[12] = system: M14
[13] = system: HL-60
[14] = system: LOX IMVI
[15] = system: TK-10

Row | Compound | GI50 [1] | GI50 [2] | GI50 [3] | GI50 [4] | GI50 [5] | GI50 [6] | GI50 [7] | GI50 [8] | GI50 [9] | GI50 [10] | GI50 [11] | GI50 [12] | GI50 [13] | GI50 [14] | GI50 [15]
1 | CCCCCCCCCCCC(=O)c1c(O)cccc1O | 21 µM (inactive) | 19.3 µM (inactive) | 17.2 µM (inactive) | 18.7 µM (inactive) | 18 µM (inactive) | 16.3 µM (inactive) | 16.7 µM (inactive) | 17.8 µM (inactive) | 21.7 µM (inactive) | 20.4 µM (inactive) | 15.4 µM (inactive) | 18.6 µM (inactive) | 19.9 µM (inactive) | 18.8 µM (inactive) | 33 µM (inactive)
2 | Cc1c(C(=O)Nc2ccc(Cl)c(C(F)(F)F)c2)oc2cc(O)ccc2/c1=N\NC(N)=S | > 100 µM (inactive) | > 100 µM (inactive) | > 100 µM (inactive) | > 100 µM (inactive) | > 100 µM (inactive) | > 100 µM (inactive) | > 100 µM (inactive) | > 100 µM (inactive) | > 100 µM (inactive) | > 100 µM (inactive) | > 100 µM (inactive) | > 100 µM (inactive) | > 100 µM (inactive) | > 100 µM (inactive) | > 100 µM (inactive)
3 | Clc1ccc(C2=Nc3ccccc3SC(c3cccs3)C2)cc1 (configuration not stated) | 2.43 µM (inactive) |  | 15 µM (inactive) | 18.1 µM (inactive) | 7.67 µM (inactive) | 16.3 µM (inactive) | 15.7 µM (inactive) | 17.6 µM (inactive) | 15 µM (inactive) | 20.9 µM (inactive) |  | 16.4 µM (inactive) |  | 7.19 µM (inactive) | 17.3 µM (inactive)
4 | COc1nc(OC)c2c(=O)oc(-c3ccccc3)cc2n1 | > 100 µM (inactive) | > 100 µM (inactive) | > 100 µM (inactive) | > 100 µM (inactive) | > 100 µM (inactive) | > 100 µM (inactive) | > 100 µM (inactive) | > 100 µM (inactive) |  | > 100 µM (inactive) | > 100 µM (inactive) |  |  |  | > 100 µM (inactive)
5 | COc1ccc2c(c1)CC1NC2Cc2ccccc21 (configuration not stated) |  |  | > 100 µM (inactive) | > 100 µM (inactive) | > 100 µM (inactive) | > 100 µM (inactive) | > 100 µM (inactive) | > 100 µM (inactive) | > 100 µM (inactive) | > 100 µM (inactive) | > 100 µM (inactive) | > 100 µM (inactive) |  |  | > 100 µM (inactive)
6 | N=C(N)NNC(=O)CCCCCCCC(=O)NNC(=N)N |  |  | > 100 µM (inactive) |  | > 100 µM (inactive) | > 100 µM (inactive) | > 100 µM (inactive) | > 100 µM (inactive) | > 100 µM (inactive) |  | > 100 µM (inactive) | > 100 µM (inactive) | > 100 µM (inactive) | > 100 µM (inactive) | > 100 µM (inactive)
7 | CCOC(=O)C1=C(C)NC(=O)NC1c1ccc(OC)cc1OC (configuration not stated) | > 100 µM (inactive) | > 100 µM (inactive) | > 100 µM (inactive) | > 100 µM (inactive) | > 100 µM (inactive) | > 100 µM (inactive) | > 100 µM (inactive) |  | > 100 µM (inactive) | > 100 µM (inactive) | > 100 µM (inactive) | > 100 µM (inactive) | > 100 µM (inactive) | > 100 µM (inactive) | > 100 µM (inactive)
8 | CCOC(=O)c1cc(/C=C/C(C)=C/C(=O)OC)oc1C | > 100 µM (inactive) |  | > 100 µM (inactive) | 45.6 µM (inactive) | > 100 µM (inactive) | > 100 µM (inactive) | > 100 µM (inactive) | > 100 µM (inactive) | > 100 µM (inactive) | > 100 µM (inactive) | > 100 µM (inactive) | > 100 µM (inactive) | > 100 µM (inactive) | > 100 µM (inactive) | > 100 µM (inactive)
9 | COc1cc(NS(=O)(=O)c2ccc(C)cc2)c2nccnc2c1 | 16.7 µM (inactive) | 36.9 µM (inactive) | 26.7 µM (inactive) | 20.7 µM (inactive) |  | 24.7 µM (inactive) | 29.8 µM (inactive) | 30.7 µM (inactive) | 13 µM (inactive) | 12.4 µM (inactive) | 16.6 µM (inactive) | 17 µM (inactive) | 13 µM (inactive) | 28 µM (inactive) | 47 µM (inactive)
10 | CCOC(=O)C1=C(Nc2cccc3ccccc23)OCC1=O | > 100 µM (inactive) | > 100 µM (inactive) |  | > 100 µM (inactive) | > 100 µM (inactive) | > 100 µM (inactive) | > 100 µM (inactive) | 43.5 µM (inactive) | > 100 µM (inactive) | > 100 µM (inactive) | > 100 µM (inactive) | > 100 µM (inactive) |  |  | 
11 | O=C1C=CC(=O)c2nc3c(cc21)CCC3 | 5.92 µM (inactive) |  | > 100 µM (inactive) | 12.6 µM (inactive) | 15.5 µM (inactive) | 17.9 µM (inactive) | 19.6 µM (inactive) | 25.6 µM (inactive) | 32.7 µM (inactive) | 11.6 µM (inactive) |  | 16.6 µM (inactive) | 4.67 µM (inactive) | 15.3 µM (inactive) | 18.5 µM (inactive)
12 | Brc1cccc(C2SCc3nc4ccccc4n32)c1 (configuration not stated) | 15.7 µM (inactive) | 11.2 µM (inactive) | 27.1 µM (inactive) | 13.9 µM (inactive) | 14.5 µM (inactive) | 33.5 µM (inactive) |  | 17.1 µM (inactive) | 23.6 µM (inactive) | 22.6 µM (inactive) |  | 22.5 µM (inactive) | 7.94 µM (inactive) | 14.6 µM (inactive) | 25.1 µM (inactive)
13 | Cc1ccc([S+](c2ccccc2)c2cc(C)ccc2C)cc1 (configuration not stated) | 24.6 µM (inactive) |  | 12.4 µM (inactive) | 3.13 µM (inactive) | 2.94 µM (inactive) | 6.64 µM (inactive) | 1.48 µM (inactive) |  | 6.38 µM (inactive) | 3.65 µM (inactive) |  | 22.2 µM (inactive) | 1.97 µM (inactive) | 2.35 µM (inactive) | 
14 | N=C(N)N/N=C/c1c[nH]c2ccccc12 | > 100 µM (inactive) | > 100 µM (inactive) | > 100 µM (inactive) | 74.6 µM (inactive) |  | > 100 µM (inactive) | > 100 µM (inactive) | > 100 µM (inactive) | > 100 µM (inactive) | > 100 µM (inactive) | > 100 µM (inactive) | > 100 µM (inactive) | > 100 µM (inactive) | > 100 µM (inactive) | > 100 µM (inactive)
15 | CN(C)CCNC(=O)c1cccc2ccc(-c3ccncc3)nc12 |  |  | 2.88 µM (inactive) |  | 1.27 µM (inactive) | 3.79 µM (inactive) | 2.06 µM (inactive) | 4.86 µM (inactive) | 0.403 µM (active) | 0.306 µM (active) | 4.02 µM (inactive) | 4.11 µM (inactive) | 0.877 µM (active) | 1.39 µM (inactive) | 2.21 µM (inactive)
16 | N=C(N)N/N=C(/CC1OC(=O)c2ccccc21)c1ccc2ccccc2c1 (configuration not stated) | 14.2 µM (inactive) | 13.7 µM (inactive) | 23.8 µM (inactive) | 14.2 µM (inactive) |  | 13.6 µM (inactive) | 14.6 µM (inactive) | 18.6 µM (inactive) | 16.4 µM (inactive) | 23.6 µM (inactive) | 46.9 µM (inactive) | 16.7 µM (inactive) | 17.8 µM (inactive) | 23.1 µM (inactive) | 18.1 µM (inactive)
17 | CCOC(=O)/C(=C\c1ccccc1)C(=O)O | > 100 µM (inactive) | > 100 µM (inactive) | > 100 µM (inactive) | > 100 µM (inactive) | > 100 µM (inactive) | > 100 µM (inactive) | > 100 µM (inactive) | > 100 µM (inactive) | > 100 µM (inactive) | > 100 µM (inactive) | > 100 µM (inactive) | > 100 µM (inactive) | > 100 µM (inactive) | > 100 µM (inactive) | 
18 | CC1=C[C@H]2c3c([nH]c4ccccc34)C(c3c[nH]c4ccccc34)[C@H]2CC1 (some centres not stated) |  | 11 µM (inactive) |  | 5.87 µM (inactive) | 3.27 µM (inactive) |  | 13.4 µM (inactive) | 12.1 µM (inactive) | 2.84 µM (inactive) | 2.15 µM (inactive) |  | 6.52 µM (inactive) | 4.94 µM (inactive) | 2.19 µM (inactive) | 14.5 µM (inactive)
19 | CCC12C=CCN3CC[C@]4(C(=C(C(=O)OC)[C@@H]1Nc1ccn(C5OC(COC(C)=O)C(OC(C)=O)C5OC(C)=O)c(=O)n1)Nc1ccccc14)C32 (some centres not stated) | 3.94 µM (inactive) | 4.47 µM (inactive) | 4.72 µM (inactive) | 3.84 µM (inactive) | 4 µM (inactive) | 5.55 µM (inactive) | 1.26 µM (inactive) | 4.55 µM (inactive) | 4.45 µM (inactive) | 6.58 µM (inactive) | 2.39 µM (inactive) | 4.18 µM (inactive) | 4.51 µM (inactive) | 4.26 µM (inactive) | 4.93 µM (inactive)
20 | COc1cc(/C=C\c2ccc(Br)cc2)cc(OC)c1OC | 0.01 µM (active) | 0.0014 µM (active) | 0.000296 µM (active) | 0.000357 µM (active) | 0.000515 µM (active) | 0.000792 µM (active) | 0.000414 µM (active) | 0.1 µM (active) | 0.01 µM (active) | 0.000662 µM (active) | 0.00794 µM (active) | 0.000312 µM (active) | 0.000318 µM (active) | 0.000811 µM (active) | 
21 | Nc1n[n+]([O-])c2ccccc2[n+]1[O-] [TIRAPAZAMINE] |  | > 100 µM (inactive) | > 100 µM (inactive) | 99.8 µM (inactive) |  | > 100 µM (inactive) | 72.4 µM (inactive) | > 100 µM (inactive) | 49.7 µM (inactive) | 37.4 µM (inactive) | > 100 µM (inactive) | > 100 µM (inactive) | > 100 µM (inactive) | > 100 µM (inactive) | > 100 µM (inactive)
